Measured values taken from PubChem BioAssay AID1555 (Sanford-Burnham Center for Chemical Genomics, 2009).

System: human liver microsomes, LC/MS/MS parent remaining, 60 min
Assay: metabolic stability in human liver microsomes, late-stage follow-up, ADME assay, biochemical (AID 1555)
Settings: at 1 µM, stronger effect = lower value

percent remaining: 47% | percent remaining (measured here: remaining without NADPH control): 100%
SMILES: C=CCn1c(SCC(=O)c2ccc(O)c(O)c2)nnc1-c1ccccc1OC
